Laboratory results taken from patent US7189761B2, “Nitric oxide donor composition and method for treatment of anal disorders” (priority 1994, dated 2007).
Where two headings read alike, the source gives them in different places. Ends that are not written are not given here.

Columns and labels:
[1] = system: human internal anal sphincter muscle strips; conditions: cited from earlier work; for effect on relaxations produced by transmural field stimulation: in the presence of atropine and guanethidine
[2] = system: smooth muscle strips of the internal anal sphincter (IAS); conditions: cited from earlier work
[3] = system: internal anal sphincter (IAS); conditions: cited from earlier work; for reversal of the L-NNA suppression of rectoanal reflex-induced IAS relaxation: in vivo; for effect on the decrease in IAS resting pressures in response to the rectoanal reflex: reflex mimicked by rectal balloon distention
[4] = system: anal fissure; test: Case reports: topical ointment in patients with anal fissure; assay type: in vivo, human; conditions: person, superficial posterior midline anal fissure, patient history
Experimental: The patient rated their pre-treatment pain 7/10. The patient applied approximately 500 mg of the ointment as prepared in Example 1, three times daily and after bowel movements. The patient reported that their pain was gone following initial application.
The patient rated their pre-treatment pain 7/10. The patient applied approximately 500 mg of the ointment as prepared in Example 1, three times daily and after bowel movements. […] After three weeks of treatment, the fissure was healed, and the pain was gone.
They had previously failed a course of hydrocortisone therapy. Pre-treatment pain was rated 9/10. The patient was treated with approximately 500 mg of the preparation of Example 1, three times daily and after bowel movements. After one week of treatment, the fissure was still present, and pain was rated 8/10. The patient was then treated with approximately 500 mg of the preparation of Example 2, three times daily and after bowel movements. Following one week of therapy with the ointment as of Example 2, the patient reported no pain and no bleeding.
Pre-treatment pain was rated 4/10. The patient was treated with the ointment as of Example 2, approximately 500 mg three times daily and after bowel movements. Following one week of therapy, the patient reported that their pain had diminished, and it was rated 2/10. […]

[5] = isolated IAS smooth muscle strips
[6] = response to lower frequencies of EFS and DMPP

For `N=C(N)NCCC[C@H](N)C(=O)O` [L-arginine], the “reversal of the inhibitory effects of NO synthase antagonists” value [1] is given as “reversed”, the “reversal of the loss of NO release and IAS relaxation” value [2] is given as “reversed to control levels” and the “reversal of the L-NNA suppression of rectoanal reflex-induced IAS relaxation” value [3] is given as “completely reversed”.
In the case of `N=C(N)NCCC[C@@H](N)C(=O)O` [D-arginine], the “reversal of the inhibitory effects of NO synthase antagonists” value [1] is listed as “did not reverse”, the “reversal of the loss of NO release and IAS relaxation” value [2] is listed as “no significant effect” and the “reversal of the L-NNA suppression of rectoanal reflex-induced IAS relaxation” value [3] is listed as “failed to reverse”.
In the case of `C[C@]12CCC(=O)C=C1CC[C@@H]1[C@@H]2[C@@H](O)C[C@@]2(C)[C@H]1CC[C@]2(O)C(=O)CO` [hydrocortisone, 11-17-21-trihydroxypregn-4-ene-3,20-dione], the “outcome of previous course of therapy” value [4] is reported as “failed”.
For `CC(C)NCC(O)c1ccc(O)c(O)c1` (centres unmarked) [isoproterenol], the “IAS relaxation and release of NO” value [2, 5] is given as “caused IAS relaxation without any increase in NO release” and the “effect on the resting pressure of the IAS” value ([3]; not modified by L-NNA) is given as “decrease”.
In the case of `N=C(NCCC[C@H](N)C(=O)O)N[N+](=O)[O-]` [L-NNA, L-NG-nitro-arginine], the “effect on relaxations produced by transmural field stimulation” value [1] is given as “completely”, the “effect on NO release caused by vasoactive intestinal polypeptide” value ([2]; IAS smooth muscle strips) is given as “abolished” and the “effect of pretreatment on NO release and fall in IAS resting tension” value [2, 6] is given as “abolished”. The “effect on the decrease in IAS resting pressures in response to the rectoanal reflex” value [3] was “significant dose-dependent suppression”.
For `C[N+]1(C)CCN(c2ccccc2)CC1` [DMPP, 1,1-dimethyl-4-phenylpiperazinium], the “IAS relaxation and release of NO” value [2] is listed as “caused IAS relaxation with an accompanying release of NO”.
For atrial natriuretic factor, the “IAS relaxation and release of NO” value [2, 5] is given as “caused IAS relaxation without any increase in NO release”.
For `NC1=N[C@H](O)[C@H]2[C@H]3O[C@]4(O)O[C@@H]([C@@H](O)[C@@]2(N1)[C@@H]4O)[C@]3(O)CO` [tetrodotoxin], the “effect of pretreatment on NO release and fall in IAS resting tension” value [2] is given as “abolished”.
For “vasoactive intestinal polypeptide: vasoactive intestinal polypeptide (HSDAVFTDNYTRLRKQMAVKKYLNSILN; ends and bridges not checked; UniProt P01282 125-152, looked up)”, the “IAS relaxation and release of NO” value [2, 5] is given as “release of NO”.
For oxyhaemoglobin, the “effect on relaxations produced by transmural field stimulation” value [1] is listed as “abolished”.
In the case of `NC(=NCCC[C@@H](N)C(=O)O)N[N+](=O)[O-]` [D-NNA], the “effect of pretreatment on NO release and fall in IAS resting tension” value [2, 6] is given as “no significant effect” and the “effect on the decrease in IAS resting pressures in response to the rectoanal reflex” value [3] is given as “no effect”.
